Experimental findings from the CombiSolv-Exp solvation set (Vermeire and Green 2021) are described below.

The series is described as follows: solvent given as SMILES.
Where [1] appears, read: in CCCCCCCCC=CCCCCCCCC(=O)OCC(COC(=O)CCCCCCCC=CCCCCCCCC)OC(=O)CCCCCCCC=CCCCCCCCC

On to `O=C(c1ccccc1)C(O)c1ccccc1` (stereo not drawn), for which the “solvation free energy, 298 K” value (in C1COCCO1) was -16.5 kcal/mol; the “solvation free energy, 298 K” value (in CC(C)(C)O) was -14.6 kcal/mol; the “solvation free energy, 298 K” value (in CC(C)CCO) was -14.6 kcal/mol; the “solvation free energy, 298 K” value (in CC(C)CO) is -14.6 kcal/mol; the “solvation free energy, 298 K” value (in CC(C)O) is -14.6 kcal/mol; the “solvation free energy, 298 K” value (in CCC(C)O) is -14.6 kcal/mol. Also, the “solvation free energy, 298 K” value runs as follows: (in CCCC(C)O) -14.5 kcal/mol; (in CCCCCCCCCCO) -14.5 kcal/mol; (in CCCCCCCCO) -14.6 kcal/mol; (in CCCCCCCO) -14.6 kcal/mol; (in CCCCCCO) -14.6 kcal/mol; (in CCCCCO) -14.7 kcal/mol. Also, the “solvation free energy, 298 K” value is, setting by setting: (in CCCCO) -14.7 kcal/mol; (in CCCCOC(C)=O) -15.4 kcal/mol; (in CCCCOCCCC) -14.2 kcal/mol; (in CCCO) -14.9 kcal/mol; (in CCO) -15 kcal/mol; (in CCOC(C)=O) -15.7 kcal/mol. For the same molecule, the “solvation free energy, 298 K” value is, setting by setting: (in CCc1ccccc1) -14.9 kcal/mol; (in COC(C)(C)C) -14.8 kcal/mol; (in COC(C)=O) -15.9 kcal/mol; (in Cc1ccc(C)cc1) -15 kcal/mol; (in Cc1ccccc1) -15.2 kcal/mol; (in Cc1ccccc1C) -15.1 kcal/mol. The “solvation free energy, 298 K” value by setting is: (in ClC(Cl)(Cl)Cl) -14.4 kcal/mol; (in ClC(Cl)Cl) -16.2 kcal/mol; (in ClCCCl) -16.1 kcal/mol; (in O) -11.9 kcal/mol; (in c1ccccc1) -15.6 kcal/mol.
Turning to `CC(C)CO[N+](=O)[O-]`, the “solvation free energy, 298 K” value (in O) is -1.88 kcal/mol.
Still for that read-out and setting: then `CCC(=O)Nc1ccc(Cl)c(Cl)c1`, with -7.78 kcal/mol.
In the case of `C=C(C)CCCC`, the “solvation free energy, 298 K” value reads like this: (in C=CCCCCCCCCCCCCCC) -4.04 kcal/mol; (in O) 1.66 kcal/mol.
Take `Cc1cccc(C)c1N`: the “solvation free energy, 298 K” value (in O) is -5.21 kcal/mol.
In the case of `O=C(O)Cc1cccc(Cl)c1`, the “solvation free energy, 298 K” value (in O) was -8.39 kcal/mol.
Turning to `C=CCCCC`, the “solvation free energy, 298 K” value by setting is: (in C1CCC2CCCCC2C1) -3.67 kcal/mol; (in C1CCC(C2CCCCC2)CC1) -3.65 kcal/mol; (in C=CCCCCCCCCCCCCCC) -3.48 kcal/mol; (in CC#N) -2.96 kcal/mol; (in CC(C)CC(C)(C)C) -3.78 kcal/mol; (in CCC#N) -3.49 kcal/mol. For the same molecule, the “solvation free energy, 298 K” value (in CCCC#N) was -3.2 kcal/mol; the “solvation free energy, 298 K” value (in CCCCC(CC)COC(=O)CCCCC(=O)OCC(CC)CCCC) was -3.36 kcal/mol; the “solvation free energy, 298 K” value (in CCCCC(CC)COC(=O)c1ccccc1C(=O)OCC(CC)CCCC) was -3.18 kcal/mol; the “solvation free energy, 298 K” value (in CCCCCCC) was -3.83 kcal/mol; the “solvation free energy, 298 K” value under setting [1] is -3.41 kcal/mol; the “solvation free energy, 298 K” value (in CCCCCCCCCCCCCCCC) was -3.51 kcal/mol. For the same molecule, the “solvation free energy, 298 K” value runs as follows: (in CCCCCCCCO) -3.29 kcal/mol; (in CCCCCO) -3.3 kcal/mol; (in CCCCO) -3.22 kcal/mol; (in CCCCOC(=O)c1ccccc1C(=O)OCCCC) -3.37 kcal/mol; (in CCN1CCCC1=O) -3.11 kcal/mol; (in CCN(CC)C(C)=O) -3.26 kcal/mol. Moreover, the “solvation free energy, 298 K” value is, setting by setting: (in CCNC(C)=O) -3.04 kcal/mol; (in CCNC=O) -2.85 kcal/mol; (in CCOC(=O)c1ccccc1C(=O)OCC) -2.96 kcal/mol; (in CN1CCCC1=O) -2.91 kcal/mol; (in CN1CCCCC1=O) -3.06 kcal/mol; (in CN1CCN(C)C1=O) -2.83 kcal/mol. Further, the “solvation free energy, 298 K” value is, setting by setting: (in CN(C)C=O) -2.96 kcal/mol; (in CNC=O) -2.55 kcal/mol; (in COC(C)=O) -3.51 kcal/mol; (in CS(C)=O) -2.1 kcal/mol; (in Cc1cccc(C)c1) -3.74 kcal/mol; (in N#CCCCCC#N) -2.31 kcal/mol. In addition, the “solvation free energy, 298 K” value was -3.15 kcal/mol (in N#Cc1ccccc1); -0.91 kcal/mol (in NC=O); -1.17 kcal/mol (in NCCO); -2.68 kcal/mol (in Nc1ccccc1); 1.58 kcal/mol (in O); -2.49 kcal/mol (in O=C1CCCO1). For the same molecule, the “solvation free energy, 298 K” value (in O=CN1CCOCC1) is -2.37 kcal/mol; the “solvation free energy, 298 K” value (in O=Cc1ccco1) was -2.62 kcal/mol; the “solvation free energy, 298 K” value (in OCCO) is -1.11 kcal/mol; the “solvation free energy, 298 K” value (in OCCOCCO) is -1.73 kcal/mol; the “solvation free energy, 298 K” value (in OCCOCCOCCO) was -1.83 kcal/mol; the “solvation free energy, 298 K” value (in OCCOCCOCCOCCO) was -1.94 kcal/mol. Further, the “solvation free energy, 298 K” value is -2.53 kcal/mol (in OCc1ccco1), -3.69 kcal/mol (in c1ccc2c(c1)CCCC2) and -3.63 kcal/mol (in c1ccc(C2CCCCC2)cc1).
On to `COC(OC)OC`, for which the “solvation free energy, 298 K” value (in O) was -4.42 kcal/mol.
For `c1ccc2c(c1)Cc1ccccc1-2`, the “solvation free energy, 298 K” value was -10.4 kcal/mol (in CC(=O)N(C)C); -8.84 kcal/mol (in CC(C)(C)O); -9.32 kcal/mol (in CC(C)CC(C)(C)C); -8.95 kcal/mol (in CC(C)CCO); -9.21 kcal/mol (in CC(C)CO); -8.92 kcal/mol (in CC(C)O). Also, the “solvation free energy, 298 K” value was -8.95 kcal/mol (in CCC(C)O); -9.03 kcal/mol (in CCCC(C)O); -9.14 kcal/mol (in CCCCC(CC)CO); -9.29 kcal/mol (in CCCCCC); -9.3 kcal/mol (in CCCCCCC); -9.29 kcal/mol (in CCCCCCCC). Moreover, the “solvation free energy, 298 K” value under setting [1] is -9.74 kcal/mol; the “solvation free energy, 298 K” value (in CCCCCCCCCC) was -9.32 kcal/mol; the “solvation free energy, 298 K” value (in CCCCCCCCCCO) is -9.33 kcal/mol; the “solvation free energy, 298 K” value (in CCCCCCCCO) was -9.32 kcal/mol; the “solvation free energy, 298 K” value (in CCCCCCCO) is -9.33 kcal/mol; the “solvation free energy, 298 K” value (in CCCCCCO) is -9.26 kcal/mol. Further, the “solvation free energy, 298 K” value reads like this: (in CCCCCO) -9.24 kcal/mol; (in CCCCO) -9.15 kcal/mol; (in CCCO) -9.09 kcal/mol; (in CCO) -8.93 kcal/mol; (in CN1CCCC1=O) -10.5 kcal/mol; (in CO) -8.85 kcal/mol. The “solvation free energy, 298 K” value (in O) is -3.34 kcal/mol.
Regarding `O=C(OC1CCCCC1)c1ccccc1C(=O)OC1CCCCC1`, under “in O”, the “solvation free energy, 298 K” value is -9.07 kcal/mol.
Consider `CC(=O)CC(=O)c1cccs1`, for which, under “in O”, the “solvation free energy, 298 K” value was -6.08 kcal/mol.
On the same count and under the same terms, then `O=Cc1cccc(O)c1`, with -9.52 kcal/mol.
For `COc1ccc(CCN)cc1`, the “solvation free energy, 298 K” value (in C=CCCCCCCC=C) is -9.4 kcal/mol and the “solvation free energy, 298 K” value (in O) was -8.51 kcal/mol.
As for `ClC=CCl`, the “solvation free energy, 298 K” value reads like this: (in COC(C)=O) -3.98 kcal/mol; (in ClCCCl) -3.71 kcal/mol.
As for `C=C1CCC2C(C)CCC3C(C12)C3(C)C` (stereo not drawn), the “solvation free energy, 298 K” value (in O) stood at 0.42 kcal/mol.
Take `Clc1cc(Cl)c(-c2c(Cl)cccc2Cl)c(Cl)c1`: the “solvation free energy, 298 K” value (in O) is -1.96 kcal/mol.
Take `CCCCCC(N)=O`: under “in O”, the “solvation free energy, 298 K” value is -9.31 kcal/mol.
On to `CCCCCC=CC=O`, for which the “solvation free energy, 298 K” value (in O) was -3.43 kcal/mol.
Turning to `O=C(O)CCCCCCc1ccccc1`, the “solvation free energy, 298 K” value (in O) is -8.72 kcal/mol.
As to `CCCCC(=O)OC`, the “solvation free energy, 298 K” value is -4.93 kcal/mol (in CCCCCC); -4.91 kcal/mol (in CCCCCCC); -4.85 kcal/mol (in CCCCCCCC); -4.75 kcal/mol (in CCCCCCCCCC); -5.33 kcal/mol (in CO); -2.56 kcal/mol (in O).
As for `BrC(Br)Br`, for the setting “in O”, the “solvation free energy, 298 K” value was -1.96 kcal/mol.
For the molecule `Cc1ccnc(C)c1`, the “solvation free energy, 298 K” value (in O) is -4.86 kcal/mol.
The same measure, in the same setting: then `CCCCCC=CCC=CCCCCCCCC(=O)OC`, with -2.48 kcal/mol; and `CC(=O)OCCc1ccccc1`, with -5.5 kcal/mol.
Regarding `Oc1ccc(-c2ccccc2)cc1`, the “solvation free energy, 298 K” value was -9.58 kcal/mol (in CC(C)CC(C)(C)C), -12.8 kcal/mol (in CCCCOCCCC) and -8.89 kcal/mol (in O).
In the case of `CC1CCC(C(C)C)C(=O)C1` (stereo not drawn), the “solvation free energy, 298 K” value (in O) was -2.53 kcal/mol.
On to `O=[N+]([O-])c1cccc(Cl)c1Cl`, for which the “solvation free energy, 298 K” value (in C1CCCCC1) was -8.4 kcal/mol; the “solvation free energy, 298 K” value (in CC(C)O) was -8.56 kcal/mol; the “solvation free energy, 298 K” value (in CCCCCC) is -7.97 kcal/mol; the “solvation free energy, 298 K” value (in CCCCCCC) is -8.07 kcal/mol; the “solvation free energy, 298 K” value (in CCCCO) is -8.71 kcal/mol; the “solvation free energy, 298 K” value (in CCCO) is -8.65 kcal/mol. For the same molecule, the “solvation free energy, 298 K” value was -9.93 kcal/mol (in CCOC(C)=O), -9.46 kcal/mol (in ClC(Cl)(Cl)Cl) and -4.22 kcal/mol (in O).
Turning to `Clc1cc(Cl)c(-c2c(Cl)c(Cl)cc(Cl)c2Cl)cc1Cl`, the “solvation free energy, 298 K” value (in O) is -2.77 kcal/mol.
As for `c1cc2ccc3ccc4ccc5cccc6c(c1)c2c3c4c56`, the “solvation free energy, 298 K” value (in O) is -8.98 kcal/mol and the “solvation free energy, 298 K” value (in O=C1CCCCC1) was -19.4 kcal/mol.
Take `Brc1cccc(Br)c1`: the “solvation free energy, 298 K” value (in O) was -1.99 kcal/mol.
Regarding `OCCCl`, the “solvation free energy, 298 K” value reads like this: (in Brc1ccccc1) -4.8 kcal/mol; (in CCCCCCCCCCO) -5.73 kcal/mol; (in CCCCCCCCO) -5.87 kcal/mol; (in Cc1ccc(C)cc1) -4.77 kcal/mol; (in Cc1cccc(C)c1) -4.69 kcal/mol; (in Cc1ccccc1C) -4.74 kcal/mol. The “solvation free energy, 298 K” value by setting is: (in Clc1ccccc1) -4.62 kcal/mol; (in O) -6.28 kcal/mol.
`CCCC(O)CC` (stereo not drawn): under “in O”, the “solvation free energy, 298 K” value is -4.06 kcal/mol.
In the case of `O=c1cc(Cl)[nH]c(=O)[nH]1`, where the note is “in O”, the “solvation free energy, 298 K” value is -15.8 kcal/mol.
Same read-out and setting: then `COC(CC#N)(OC)OC`, with -6.4 kcal/mol.
Turning to `CNC(=O)c1ccccc1`, the “solvation free energy, 298 K” value (in CC(C)CC(C)(C)C) is -7.63 kcal/mol.
On to `CC(C)=CCCC(C)CCCC(C)CCCC(C)C` (stereo not drawn), for which the “solvation free energy, 298 K” value (in O) is 3.72 kcal/mol.
